Results from article PMC5847527, “Identification of a novel 2-oxindole fluorinated derivative as in vivo antitumor agent for prostate cancer acting via AMPK activation” (Scientific Reports, 2018).

Columns and labels:
[1] = tested on: PC-3 cells; test: Cell viability by MTT assay, PC-3; format: cell-based, human
Method: (§1) Figure 3 Comparison of the effect of 2-oxindole fluorinated derivatives on the proliferation of human prostate cancer cells. (A) Normal (PTN2 and RWPE-1) and cancer (PC3,DU145 and LNCaP) prostate cells were treated with different doses of the compounds for 24 hours and cell viability was monitored by MTT assay. […] (C) PC-3, DU145 and LNCaP cells were treated with 25 µM of compound 8c for different times. Values were normalized with the control and represent the mean ± SD of at least three independent experiments. *p < 0.05 and **p < 0.01 compared to control by the Student’s - test.
(§2) Human prostate cancer epithelial PC-3, DU145 and LNCaP and human prostate normal RWPE-1 cells were purchased from American Type Culture Collection (ATCC CRL-1435 CRL-1740 and CRL 11609 respectively) (Rockville, MD, USA). The human prostate normal PNT2 cell line was purchased to ECACC (European Collection of Cell cultures, Salisbury, SP4 0JG, UK). Cells were routinely grown in RPMI 1640 medium supplemented with 100 IU/ml penicillin G sodium, 100 µg/ml streptomycin sulfate, 0.25 µg/ml amphotericin B (Invitrogen, Paisley, UK) and 10% fetal calf serum. Cells were used at passages between 10–20. For treatment experiments, cells were plated and grown over night, the medium was then replaced with serum-free RPMI 1640 for 24 hours and then incubated with different doses of the compounds for the indicated times.
(§3) Cell viability was determined by 3-(4,5-dimethylthiazol-2-yl)-2,5-diphenyltetrazolium bromide (MTT) (Sigma-Aldrich) method. In brief, a total of 5000 cells/well were seeded into 12-well plate in a final volume of 1 mL. After treatments, 20 µl MTT solution (5 mg/ml in PBS) was added to the medium and cells were incubated at 37 °C for 4 h. Then, the supernatant was discarded and isopropanol was added to dissolve the formazan crystals. Treatments were carried out in triplicate. The optical density in each well was evaluated by measurement of absorbance at 490 and 650 nm using a microplate reader (ELX 800 Bio-Tek Intruments, INC). IC50 values were calculated using GraphPad Prism vs 6.0 (GraphPad Software, Inc, La Jolla, CA, USA). Cell viability was also determined by counting viable and dead cells by Trypan blue staining. Trypan blue positive and negative cells were counted using a Countess^TM automated cell counter (Invitrogen, Carlsbad, CA, USA). Results were expressed in relation to total number of cells counted.

[2] = tested on: LNCaP cells; test: Cell viability by MTT assay, LNCaP; format: cell-based, human
Method: as §1, §2
as §3, with “In brief, a total of 5000 cells/well were seeded into 12-well plate in a final volume of 1 mL. After treatments, 20 µl MTT solution (5 mg/ml in PBS) was added to the medium and cells were incubated at 37 °C for 4 h. Then, the supernatant was discarded and isopropanol was added to dissolve the formazan crystals. Treatments were carried out in triplicate.” left out

[3] = tested on: LNCaP cells; test: Cell cycle analysis by flow cytometry (Propidium Iodide), LNCaP; format: cell-based, human; conditions: 24 h, 25 μM and 50 μM
Method: For that, we treated PC-3 and LNCaP cells with 25 μM and 50 μM of compound 8c for 24 h and performed cell cycle analysis by flow cytometry using Propidium Iodide (PI). […] It is worthy to note that when PC-3 cells were treated with compound 8c, 80% of cells were in subG0 phase (Fig. 4A).
Figure 4 Cell Cycle analysis in 8c-treated prostate cancer cells. (A) PC-3 and LNCaP cells were treated with compound 8c for 24 hours and cell cycle analysis was analyzed by flow cytometry using Propidium Iodide (PI). Percentage of cells in subG0, G1, S, and G2/M phases is indicated in the histogram. (B) Levels of Cyclin D1, p-p53, p53, p21 and cleaved Caspase 3 (17 kDa fragment) were determined by Western blot. Upper panel, representative Western blot of two different experiments. β-tubulin (β-Tub) serves as a loading control. Lower panel, the densitometric analyses of bands represented as the mean ± SD of the two different experiments. *p < 0.05 and **p < 0.01 compared with the control group by the Student’s t-test.
Flow cytometry was used to detect the distribution of cell cycle. After being cultivated with the treatment, 10^5 cells in 35 mm culture dish were harvested in 0.35% trypsin, collected and fixed with 70% cold ethanol at 4 °C for 1 h. Then, cells were centrifuged at 1500 g for 5 min and incubated in 0.5 ml PBS containing 0.1 mg/ml RNase for 30 min at 37 °C. […]

[4] = Tolerability in PC-3 xenograft mice (weight, serum parameters, liver); format: in vivo; conditions: 5 mg/Kg daily, 15 days
Excerpt: To validate the therapeutic value of the compound 8c against castration-resistant prostate cancer a murine xenograft model was employed. Due to the potent effect of compound 8c on the aggressive PC-3 cell line and in order to avoid unnecessary wasting of animals according to the 3 Rs guidelines (reduction, replacement, refinement) for the use of animals in research, we only use PC-3 cells for the in vivo studies. PC-3 tumors were induced in nude mice by subcutaneous injection of cells in the right flank of the mouse. When tumors reached a 70 mm^3 volume, mice were daily treated with 5 mg/Kg of compound 8c. In vehicle-treated mice, an increase in tumor growth volume was observed during the course of the study and at the end of experimentation (Fig. 8A).
Male immunodeficient nude-Foxn1 (nu/nu) mice (Envigo RMS, Barcelona, Spain), 4 to 6 week old, were used for all xenograft studies. […] Tumors were measured with external calipers and volume was calculated by the modified ellipsoidal formula as volume = length × (width)^2 × 0.52 mm^3 [52],[53]. At the end of the study, the mice were sacrificed by placing them in a CO2 gas-filled chamber, and the excised tumors were recovered and homogenized in lysis buffer for protein quantification and Western blotting. […]

O=C1Nc2ccccc2C1(F)Cc1ccc(-c2ccccc2)o1 (stereo not shown) [Compound 8c, 3-fluoro-3-((5-phenylfuran-2-yl)methyl)indolin-2-one]
IC50 ([1]; Homo sapiens, PC-3, MTT, 24 hours): 18 µM | inhibitory efficacy on cells viability at 50 μM ([1]; PC-3, 50 μM): 84% | inhibitory efficacy on cells viability at 50 μM ([2]; 50 μM): 85% | IC50 ([2]; Homo sapiens, MTT, 24 hours): 30 µM | subG0 cells [3]: increase in subG0 cells | liver morphology [4]: Liver morphology was normal | mice weight or animal welfare [4]: No effect on mice weight or animal welfare
